Assay results from PMC10924921, “Mi-2β promotes immune evasion in melanoma by activating EZH2 methylation” (Nature Communications, 2024).

Experiments:
Experiment in all cases: biochemical
Design in all cases: KINOMEscan active-site competition binding panel (468 kinase assays), per cent of control at 1000 nM
Conditions in all cases: KINOMEscan per cent of control (binding competition); read-out: Percent Control
[1] = biological target: DAPK2 (Homo sapiens, UniProt Q9UIK4)
Excerpt: (§1) Figure S7 / Percent Control

[2] = biological target: T1, TYK2(JH1domain-catalytic) (Homo sapiens, UniProt P29597)
T1 construct: JH1domain-catalytic
Excerpt: as §1

[3] = biological target: T2, AMPK-alpha2 (Homo sapiens, UniProt P54646)
T2 construct: gene PRKAA2
Excerpt: as §1

[4] = biological target: TNNI3K (Homo sapiens, UniProt Q59H18)
Excerpt: as §1

[5] = biological target: KIT(D816V) (Homo sapiens, UniProt P10721, D816V)
Excerpt: as §1

[6] = biological target: LIMK1 (Homo sapiens, UniProt P53667)
Excerpt: as §1

[7] = biological target: AURKB (Homo sapiens, UniProt Q96GD4)
Excerpt: as §1

[8] = biological target: PIK3CA(M1043I) (Homo sapiens, UniProt P42336, M1043I)
Excerpt: as §1

[9] = biological target: PIK3CA(I800L) (Homo sapiens, UniProt P42336, I800L)
Excerpt: as §1

[10] = biological target: MYLK2 (Homo sapiens, UniProt Q9H1R3)
Excerpt: as §1

[11] = biological target: GRK7 (Homo sapiens, UniProt Q8WTQ7)
Excerpt: as §1

[12] = biological target: EPHA3 (Homo sapiens, UniProt P29320)
Excerpt: as §1

[13] = biological target: EPHB3 (Homo sapiens, UniProt P54753)
Excerpt: as §1

[14] = biological target: FGFR3(G697C) (Homo sapiens, UniProt P22607, G697C)
Excerpt: as §1

[15] = biological target: DDR2 (Homo sapiens, UniProt Q16832)
Excerpt: as §1

[16] = biological target: T3, p38-gamma (Homo sapiens, UniProt P53778)
T3 construct: gene MAPK12
Excerpt: as §1

[17] = biological target: FYN (Homo sapiens, UniProt P06241)
Excerpt: as §1

[18] = biological target: T4, MEK1 (Homo sapiens, UniProt Q02750)
T4 construct: gene MAP2K1
Excerpt: as §1

[19] = biological target: MET(M1250T) (Homo sapiens, UniProt P08581, M1250T)
Excerpt: as §1

[20] = biological target: T5, RPS6KA4(Kin.Dom.2-C-terminal) (Homo sapiens, UniProt O75676)
T5 construct: Kin.Dom.2-C-terminal
Excerpt: as §1

[21] = biological target: ITK (Homo sapiens, UniProt Q08881)
Excerpt: as §1

[22] = biological target: T6, IKK-beta (Homo sapiens, UniProt O14920)
T6 construct: gene IKBKB
Excerpt: as §1

[23] = biological target: FLT3 (Homo sapiens, UniProt P36888)
Excerpt: as §1

[24] = biological target: CDKL2 (Homo sapiens, UniProt Q92772)
Excerpt: as §1

T4 sequence (Q02750 whole entry): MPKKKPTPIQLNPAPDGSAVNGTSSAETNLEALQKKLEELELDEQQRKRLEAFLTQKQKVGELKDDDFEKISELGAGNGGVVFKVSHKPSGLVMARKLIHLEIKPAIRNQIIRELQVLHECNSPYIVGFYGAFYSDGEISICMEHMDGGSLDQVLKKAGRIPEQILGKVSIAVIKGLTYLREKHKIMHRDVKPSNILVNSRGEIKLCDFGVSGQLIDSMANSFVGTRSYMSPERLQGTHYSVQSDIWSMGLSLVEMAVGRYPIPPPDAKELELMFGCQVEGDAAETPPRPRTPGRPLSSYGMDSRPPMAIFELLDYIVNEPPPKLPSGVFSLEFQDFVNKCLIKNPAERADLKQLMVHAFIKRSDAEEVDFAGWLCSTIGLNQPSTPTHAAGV
EPHB3, sequence (P54753 whole entry): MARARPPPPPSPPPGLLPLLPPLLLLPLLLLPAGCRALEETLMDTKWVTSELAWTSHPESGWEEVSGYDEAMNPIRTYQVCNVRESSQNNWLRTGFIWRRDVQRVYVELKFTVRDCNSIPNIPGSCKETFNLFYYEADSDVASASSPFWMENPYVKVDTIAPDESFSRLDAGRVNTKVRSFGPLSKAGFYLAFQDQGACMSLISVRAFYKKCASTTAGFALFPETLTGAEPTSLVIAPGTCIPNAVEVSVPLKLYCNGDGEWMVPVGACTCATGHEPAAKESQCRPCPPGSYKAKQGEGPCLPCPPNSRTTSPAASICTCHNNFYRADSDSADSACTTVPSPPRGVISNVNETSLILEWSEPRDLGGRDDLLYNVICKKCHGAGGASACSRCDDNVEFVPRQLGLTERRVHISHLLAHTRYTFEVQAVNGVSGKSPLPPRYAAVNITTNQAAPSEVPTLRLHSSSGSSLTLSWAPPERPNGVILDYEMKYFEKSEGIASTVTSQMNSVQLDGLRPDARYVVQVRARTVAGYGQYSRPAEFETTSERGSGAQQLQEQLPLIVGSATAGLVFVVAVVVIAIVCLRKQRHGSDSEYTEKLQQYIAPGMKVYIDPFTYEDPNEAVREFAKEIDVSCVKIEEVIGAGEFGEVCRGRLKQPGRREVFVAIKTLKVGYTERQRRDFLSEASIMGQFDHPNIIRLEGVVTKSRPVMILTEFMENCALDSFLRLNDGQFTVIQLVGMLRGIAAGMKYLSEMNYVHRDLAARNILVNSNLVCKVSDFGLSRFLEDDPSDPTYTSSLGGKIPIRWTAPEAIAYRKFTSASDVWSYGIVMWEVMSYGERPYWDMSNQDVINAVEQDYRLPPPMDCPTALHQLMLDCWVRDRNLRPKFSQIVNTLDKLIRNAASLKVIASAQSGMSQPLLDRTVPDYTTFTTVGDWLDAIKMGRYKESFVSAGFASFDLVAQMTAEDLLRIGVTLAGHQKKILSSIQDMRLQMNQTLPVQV
FGFR3(G697C), sequence (P22607 whole entry G697C): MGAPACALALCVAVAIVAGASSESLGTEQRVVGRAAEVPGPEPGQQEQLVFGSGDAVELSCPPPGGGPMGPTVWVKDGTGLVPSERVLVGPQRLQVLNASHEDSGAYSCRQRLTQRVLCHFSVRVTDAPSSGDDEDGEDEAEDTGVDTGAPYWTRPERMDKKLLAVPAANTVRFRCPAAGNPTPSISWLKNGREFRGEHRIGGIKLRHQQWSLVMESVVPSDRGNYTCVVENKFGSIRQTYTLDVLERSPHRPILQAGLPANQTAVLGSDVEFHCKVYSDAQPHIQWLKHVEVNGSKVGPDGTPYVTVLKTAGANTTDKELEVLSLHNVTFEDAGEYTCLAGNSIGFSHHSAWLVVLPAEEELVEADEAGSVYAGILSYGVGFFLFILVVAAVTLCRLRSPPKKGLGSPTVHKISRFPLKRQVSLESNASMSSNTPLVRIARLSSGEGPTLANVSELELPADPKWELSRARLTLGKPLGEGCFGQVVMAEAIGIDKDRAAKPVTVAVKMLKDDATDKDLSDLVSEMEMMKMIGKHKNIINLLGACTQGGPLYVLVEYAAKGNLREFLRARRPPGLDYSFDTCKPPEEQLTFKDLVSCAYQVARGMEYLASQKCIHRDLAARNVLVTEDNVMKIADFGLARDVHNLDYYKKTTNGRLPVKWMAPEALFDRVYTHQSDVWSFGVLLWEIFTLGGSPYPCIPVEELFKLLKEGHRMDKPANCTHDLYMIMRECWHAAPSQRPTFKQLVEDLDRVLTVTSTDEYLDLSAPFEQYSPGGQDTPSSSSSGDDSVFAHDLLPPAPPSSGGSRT
DDR2, sequence (Q16832 whole entry): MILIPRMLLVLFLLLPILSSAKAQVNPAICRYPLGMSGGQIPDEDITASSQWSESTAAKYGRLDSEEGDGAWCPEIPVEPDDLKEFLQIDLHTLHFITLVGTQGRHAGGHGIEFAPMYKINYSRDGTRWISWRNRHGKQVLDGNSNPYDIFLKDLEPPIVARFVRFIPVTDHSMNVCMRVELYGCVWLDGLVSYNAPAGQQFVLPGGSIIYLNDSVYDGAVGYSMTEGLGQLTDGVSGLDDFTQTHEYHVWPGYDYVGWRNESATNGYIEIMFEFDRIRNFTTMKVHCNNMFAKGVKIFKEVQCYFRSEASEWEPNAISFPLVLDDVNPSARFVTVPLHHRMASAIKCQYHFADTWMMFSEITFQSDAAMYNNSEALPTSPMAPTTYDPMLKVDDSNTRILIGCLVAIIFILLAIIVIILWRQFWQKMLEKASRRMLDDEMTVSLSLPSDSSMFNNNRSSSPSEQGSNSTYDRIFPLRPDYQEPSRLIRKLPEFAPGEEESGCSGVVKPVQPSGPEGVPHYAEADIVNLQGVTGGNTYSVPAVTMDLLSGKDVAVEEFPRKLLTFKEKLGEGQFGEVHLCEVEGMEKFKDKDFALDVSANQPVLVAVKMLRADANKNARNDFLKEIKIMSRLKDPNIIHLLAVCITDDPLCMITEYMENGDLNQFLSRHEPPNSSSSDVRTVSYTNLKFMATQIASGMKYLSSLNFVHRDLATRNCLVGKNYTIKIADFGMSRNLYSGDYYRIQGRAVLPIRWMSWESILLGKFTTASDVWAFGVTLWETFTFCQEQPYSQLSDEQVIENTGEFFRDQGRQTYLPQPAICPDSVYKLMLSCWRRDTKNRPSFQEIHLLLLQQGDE
GRK7, sequence (Q8WTQ7 whole entry): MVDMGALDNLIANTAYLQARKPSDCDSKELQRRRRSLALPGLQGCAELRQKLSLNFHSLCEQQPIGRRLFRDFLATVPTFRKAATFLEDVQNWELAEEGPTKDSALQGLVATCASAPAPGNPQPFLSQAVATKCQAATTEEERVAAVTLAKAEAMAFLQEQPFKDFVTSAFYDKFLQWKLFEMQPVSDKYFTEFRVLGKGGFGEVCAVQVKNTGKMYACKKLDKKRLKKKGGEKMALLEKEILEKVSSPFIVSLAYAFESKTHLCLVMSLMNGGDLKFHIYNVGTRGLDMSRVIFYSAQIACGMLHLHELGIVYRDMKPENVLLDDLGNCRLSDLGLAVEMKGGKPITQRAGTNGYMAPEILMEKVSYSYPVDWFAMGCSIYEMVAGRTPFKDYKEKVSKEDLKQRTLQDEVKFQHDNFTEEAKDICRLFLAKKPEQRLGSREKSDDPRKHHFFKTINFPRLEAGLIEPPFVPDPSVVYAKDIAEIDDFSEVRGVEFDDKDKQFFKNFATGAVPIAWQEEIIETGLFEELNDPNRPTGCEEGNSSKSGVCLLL
TNNI3K, sequence (Q59H18 whole entry): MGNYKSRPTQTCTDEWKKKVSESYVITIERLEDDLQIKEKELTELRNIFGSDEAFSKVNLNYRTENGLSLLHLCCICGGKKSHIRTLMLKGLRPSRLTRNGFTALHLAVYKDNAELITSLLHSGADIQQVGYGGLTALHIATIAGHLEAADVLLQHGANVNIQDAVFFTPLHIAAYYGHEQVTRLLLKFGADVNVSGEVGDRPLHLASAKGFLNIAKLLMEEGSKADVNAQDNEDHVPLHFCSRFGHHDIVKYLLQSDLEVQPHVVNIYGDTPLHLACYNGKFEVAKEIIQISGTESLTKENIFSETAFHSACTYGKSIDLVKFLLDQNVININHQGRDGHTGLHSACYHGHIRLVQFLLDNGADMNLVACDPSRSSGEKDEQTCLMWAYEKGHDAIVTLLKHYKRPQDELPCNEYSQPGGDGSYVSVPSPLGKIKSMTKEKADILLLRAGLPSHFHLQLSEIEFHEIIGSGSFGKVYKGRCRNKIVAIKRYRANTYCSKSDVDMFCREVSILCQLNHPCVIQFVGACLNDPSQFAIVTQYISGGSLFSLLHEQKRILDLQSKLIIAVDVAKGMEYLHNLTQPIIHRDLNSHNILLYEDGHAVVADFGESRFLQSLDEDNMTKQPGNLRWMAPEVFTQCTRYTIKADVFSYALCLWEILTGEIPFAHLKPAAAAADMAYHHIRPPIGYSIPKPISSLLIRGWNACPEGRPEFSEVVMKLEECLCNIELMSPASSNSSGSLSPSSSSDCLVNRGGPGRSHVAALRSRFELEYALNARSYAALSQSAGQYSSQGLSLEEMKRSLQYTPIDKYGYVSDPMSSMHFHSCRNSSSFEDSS
FYN, sequence (P06241 whole entry): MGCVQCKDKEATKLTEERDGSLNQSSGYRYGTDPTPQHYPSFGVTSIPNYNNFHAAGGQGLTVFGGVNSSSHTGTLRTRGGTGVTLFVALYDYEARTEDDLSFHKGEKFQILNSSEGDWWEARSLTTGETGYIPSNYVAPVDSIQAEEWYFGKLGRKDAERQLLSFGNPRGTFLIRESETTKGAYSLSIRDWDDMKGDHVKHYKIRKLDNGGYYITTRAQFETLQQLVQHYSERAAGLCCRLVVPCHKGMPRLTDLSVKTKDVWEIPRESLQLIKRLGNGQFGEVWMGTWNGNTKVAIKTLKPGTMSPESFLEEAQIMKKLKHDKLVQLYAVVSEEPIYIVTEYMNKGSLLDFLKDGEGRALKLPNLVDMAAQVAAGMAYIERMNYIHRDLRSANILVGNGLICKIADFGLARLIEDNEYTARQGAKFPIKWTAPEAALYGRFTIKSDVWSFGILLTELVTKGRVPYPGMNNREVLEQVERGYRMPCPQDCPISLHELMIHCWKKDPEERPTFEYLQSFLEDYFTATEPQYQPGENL

Cn1c(=O)[nH]c2ccc(-c3cccc(C(=O)NC4CCn5ccnc5C4)c3)cc21 (stereo not drawn) [Z36-MP5]
remaining binding at 1 µM [1]: 93% | remaining binding at 1 µM [2]: 64% | remaining binding at 1 µM [3]: 93% | remaining binding at 1 µM [4]: 96% | remaining binding at 1 µM [5]: 58% | remaining binding at 1 µM [6]: 85% | remaining binding at 1 µM [7]: 84% | remaining binding at 1 µM [8]: 83% | remaining binding at 1 µM [9]: 94% | remaining binding at 1 µM [10]: 96% | remaining binding at 1 µM [11]: 90% | remaining binding at 1 µM [12]: 93% | remaining binding at 1 µM [13]: 78% | remaining binding at 1 µM [14]: 49% | remaining binding at 1 µM [15]: 66% | remaining binding at 1 µM [16]: 78% | remaining binding at 1 µM [17]: 100% | remaining binding at 1 µM [18]: 63% | remaining binding at 1 µM [19]: 88% | remaining binding at 1 µM [20]: 59% | remaining binding at 1 µM [21]: 96% | remaining binding at 1 µM [22]: 66% | remaining binding at 1 µM [23]: 95% | remaining binding at 1 µM [24]: 68%
